Source: PubChem BioAssay (NCI)
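Following 48 hours of exposure in 96-well plates, responses at five concentrations were used to interpolate endpoints linearly. TGI is the concentration that stops growth completely.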

Columns and labels:
Assay in all cases: NCI anticancer screen, dose series, 48 h
K-562 leukemia = system: K-562 leukemia
HCT-116 colon = system: HCT-116 colon
SF-268 CNS = system: SF-268 CNS
SF-295 CNS = system: SF-295 CNS
NCI-H522 lung = system: NCI-H522 lung
SNB-75 CNS = system: SNB-75 CNS
HL-60(TB) leukemia = system: HL-60(TB) leukemia
SK-MEL-5 melanoma = system: SK-MEL-5 melanoma
SK-MEL-28 melanoma = system: SK-MEL-28 melanoma
NCI-H226 lung = system: NCI-H226 lung
LXFL 529 NSCLC = system: LXFL 529 NSCLC
KM20L2 colon = system: KM20L2 colon
CAKI-1 renal = system: CAKI-1 renal
LOX IMVI melanoma = system: LOX IMVI melanoma
M19-MEL melanoma = system: M19-MEL melanoma
TK-10 renal = system: TK-10 renal
SK-MEL-2 melanoma = system: SK-MEL-2 melanoma
M14 melanoma = system: M14 melanoma
MOLT-4 leukemia = system: MOLT-4 leukemia
HCT-15 colon = system: HCT-15 colon
NCI-H460 lung = system: NCI-H460 lung
HOP-18 NSCLC = system: HOP-18 NSCLC
OVCAR-3 ovarian = system: OVCAR-3 ovarian
RXF 393 renal = system: RXF 393 renal
OVCAR-4 ovarian = system: OVCAR-4 ovarian
OVCAR-5 ovarian = system: OVCAR-5 ovarian
DMS 273 small cell lung = system: DMS 273 small cell lung
UACC-62 melanoma = system: UACC-62 melanoma
ACHN renal = system: ACHN renal
DLD-1 colon = system: DLD-1 colon
SNB-78 CNS = system: SNB-78 CNS
IGROV1 ovarian = system: IGROV1 ovarian
NCI-H23 lung = system: NCI-H23 lung
CCRF-CEM leukemia = system: CCRF-CEM leukemia
EKVX NSCLC = system: EKVX NSCLC
SNB-19 CNS = system: SNB-19 CNS
KM12 colon = system: KM12 colon
786-0 renal = system: 786-0 renal
HOP-92 NSCLC = system: HOP-92 NSCLC
RXF-631 renal = system: RXF-631 renal
SN12C renal = system: SN12C renal
SR leukemia = system: SR leukemia
HT29 colon = system: HT29 colon
UO-31 renal = system: UO-31 renal
MALME-3M melanoma = system: MALME-3M melanoma
COLO 205 colon = system: COLO 205 colon
XF 498 CNS = system: XF 498 CNS
U251 CNS = system: U251 CNS
OVCAR-8 ovarian = system: OVCAR-8 ovarian
UACC-257 melanoma = system: UACC-257 melanoma
DMS 114 small cell lung = system: DMS 114 small cell lung
HOP-62 NSCLC = system: HOP-62 NSCLC
SF-539 CNS = system: SF-539 CNS
SK-OV-3 ovarian = system: SK-OV-3 ovarian
SW-620 colon = system: SW-620 colon
A549 NSCLC = system: A549 NSCLC
A498 renal = system: A498 renal
HCC-2998 colon = system: HCC-2998 colon
RPMI-8226 leukemia = system: RPMI-8226 leukemia

Compound: CCOC(=O)C1C(=O)CN2CCc3c([nH]c4ccccc34)C12C(=O)OCC (stereo unspecified)
- TGI (K-562 leukemia): > 100 µM
- TGI (HCT-116 colon): > 100 µM
- TGI (SF-268 CNS): > 100 µM
- TGI (SF-295 CNS): > 100 µM
- TGI (NCI-H522 lung): > 100 µM
- TGI (SNB-75 CNS): > 100 µM
- TGI (HL-60(TB) leukemia): > 100 µM
- TGI (SK-MEL-5 melanoma): > 100 µM
- TGI (SK-MEL-28 melanoma): > 100 µM
- TGI (NCI-H226 lung): > 100 µM
- TGI (LXFL 529 NSCLC): > 100 µM
- TGI (KM20L2 colon): > 100 µM
- TGI (CAKI-1 renal): > 100 µM
- TGI (LOX IMVI melanoma): > 100 µM
- TGI (M19-MEL melanoma): > 100 µM
- TGI (TK-10 renal): > 100 µM
- TGI (SK-MEL-2 melanoma): > 100 µM
- TGI (M14 melanoma): > 100 µM
- TGI (MOLT-4 leukemia): > 100 µM
- TGI (HCT-15 colon): > 100 µM
- TGI (NCI-H460 lung): > 100 µM
- TGI (HOP-18 NSCLC): > 100 µM
- TGI (OVCAR-3 ovarian): > 100 µM
- TGI (RXF 393 renal): > 100 µM
- TGI (OVCAR-4 ovarian): > 100 µM
- TGI (OVCAR-5 ovarian): > 100 µM
- TGI (DMS 273 small cell lung): > 100 µM
- TGI (UACC-62 melanoma): > 100 µM
- TGI (ACHN renal): > 100 µM
- TGI (DLD-1 colon): > 100 µM
- TGI (SNB-78 CNS): > 100 µM
- TGI (IGROV1 ovarian): > 100 µM
- TGI (NCI-H23 lung): > 100 µM
- TGI (CCRF-CEM leukemia): > 100 µM
- TGI (EKVX NSCLC): > 100 µM
- TGI (SNB-19 CNS): > 100 µM
- TGI (KM12 colon): > 100 µM
- TGI (786-0 renal): > 100 µM
- TGI (HOP-92 NSCLC): > 100 µM
- TGI (RXF-631 renal): > 100 µM
- TGI (SN12C renal): > 100 µM
- TGI (SR leukemia): > 100 µM
- TGI (HT29 colon): > 100 µM
- TGI (UO-31 renal): > 100 µM
- TGI (MALME-3M melanoma): > 100 µM
- TGI (COLO 205 colon): > 100 µM
- TGI (XF 498 CNS): > 100 µM
- TGI (U251 CNS): > 100 µM
- TGI (OVCAR-8 ovarian): > 100 µM
- TGI (UACC-257 melanoma): > 100 µM
- TGI (DMS 114 small cell lung): > 100 µM
- TGI (HOP-62 NSCLC): > 100 µM
- TGI (SF-539 CNS): > 100 µM
- TGI (SK-OV-3 ovarian): > 100 µM
- TGI (SW-620 colon): > 100 µM
- TGI (A549 NSCLC): > 100 µM
- TGI (A498 renal): > 100 µM
- TGI (HCC-2998 colon): > 100 µM

Compound: CCOc1ccc(Nc2nc(C)c(C(=O)/C=C/c3ccc(Cl)cc3Cl)s2)cc1
- TGI (K-562 leukemia): 93.5 µM
- TGI (HCT-116 colon): 38.3 µM
- TGI (SF-268 CNS): 77.3 µM
- TGI (SF-295 CNS): 38.5 µM
- TGI (NCI-H522 lung): 43.2 µM
- TGI (SNB-75 CNS): 39.3 µM
- TGI (HL-60(TB) leukemia): 65.6 µM
- TGI (SK-MEL-5 melanoma): 38.8 µM
- TGI (SK-MEL-28 melanoma): 51 µM
- TGI (NCI-H226 lung): 36.9 µM
- TGI (LXFL 529 NSCLC): 37.5 µM
- TGI (KM20L2 colon): 52.2 µM
- TGI (CAKI-1 renal): 55.4 µM
- TGI (LOX IMVI melanoma): 31.8 µM
- TGI (M19-MEL melanoma): 47.4 µM
- TGI (TK-10 renal): 52.6 µM
- TGI (SK-MEL-2 melanoma): 61.6 µM
- TGI (M14 melanoma): 50.1 µM
- TGI (MOLT-4 leukemia): 51.5 µM
- TGI (HCT-15 colon): 48.6 µM
- TGI (NCI-H460 lung): 42.6 µM
- TGI (HOP-18 NSCLC): 66.7 µM
- TGI (OVCAR-3 ovarian): 41 µM
- TGI (RXF 393 renal): 40.6 µM
- TGI (OVCAR-4 ovarian): 28.7 µM
- TGI (OVCAR-5 ovarian): > 100 µM
- TGI (DMS 273 small cell lung): 45 µM
- TGI (UACC-62 melanoma): 77.4 µM
- TGI (ACHN renal): 71 µM
- TGI (DLD-1 colon): 84.5 µM
- TGI (SNB-78 CNS): 67.9 µM
- TGI (IGROV1 ovarian): 85.1 µM
- TGI (NCI-H23 lung): 44.1 µM
- TGI (CCRF-CEM leukemia): 80.2 µM
- TGI (EKVX NSCLC): 85.7 µM
- TGI (SNB-19 CNS): > 100 µM
- TGI (KM12 colon): 33.5 µM
- TGI (786-0 renal): 36.3 µM
- TGI (HOP-92 NSCLC): 68.3 µM
- TGI (RXF-631 renal): 54.8 µM
- TGI (RPMI-8226 leukemia): > 100 µM
- TGI (SN12C renal): 37.1 µM
- TGI (SR leukemia): 71.2 µM
- TGI (HT29 colon): 39.4 µM
- TGI (UO-31 renal): 51 µM
- TGI (MALME-3M melanoma): 62.7 µM
- TGI (COLO 205 colon): 32.3 µM
- TGI (XF 498 CNS): 39.1 µM
- TGI (U251 CNS): 37.9 µM
- TGI (OVCAR-8 ovarian): 40.7 µM
- TGI (UACC-257 melanoma): 53.8 µM
- TGI (DMS 114 small cell lung): 56.5 µM
- TGI (HOP-62 NSCLC): 81.3 µM
- TGI (SF-539 CNS): 78.8 µM
- TGI (SK-OV-3 ovarian): 54.3 µM
- TGI (SW-620 colon): 38.7 µM
- TGI (A549 NSCLC): 45.9 µM
- TGI (A498 renal): 50.5 µM
- TGI (HCC-2998 colon): 43.9 µM

Compound: CCOC(=O)/C(ON)=C(/CC/C(C(=O)OC)=C(\ON)C(=O)OCC)C(=O)OC
- TGI (K-562 leukemia): > 100 µM
- TGI (HCT-116 colon): > 100 µM
- TGI (SF-268 CNS): > 100 µM
- TGI (SF-295 CNS): > 100 µM
- TGI (NCI-H522 lung): > 100 µM
- TGI (SNB-75 CNS): > 100 µM
- TGI (HL-60(TB) leukemia): > 100 µM
- TGI (SK-MEL-5 melanoma): > 100 µM
- TGI (SK-MEL-28 melanoma): > 100 µM
- TGI (NCI-H226 lung): > 100 µM
- TGI (LXFL 529 NSCLC): > 100 µM
- TGI (KM20L2 colon): > 100 µM
- TGI (CAKI-1 renal): > 100 µM
- TGI (LOX IMVI melanoma): > 100 µM
- TGI (M19-MEL melanoma): > 100 µM
- TGI (TK-10 renal): > 100 µM
- TGI (SK-MEL-2 melanoma): > 100 µM
- TGI (M14 melanoma): > 100 µM
- TGI (MOLT-4 leukemia): > 100 µM
- TGI (HCT-15 colon): > 100 µM
- TGI (NCI-H460 lung): > 100 µM
- TGI (HOP-18 NSCLC): > 100 µM
- TGI (OVCAR-3 ovarian): > 100 µM
- TGI (RXF 393 renal): > 100 µM
- TGI (OVCAR-4 ovarian): > 100 µM
- TGI (OVCAR-5 ovarian): > 100 µM
- TGI (DMS 273 small cell lung): > 100 µM
- TGI (UACC-62 melanoma): > 100 µM
- TGI (ACHN renal): > 100 µM
- TGI (DLD-1 colon): > 100 µM
- TGI (SNB-78 CNS): > 100 µM
- TGI (IGROV1 ovarian): > 100 µM
- TGI (NCI-H23 lung): > 100 µM
- TGI (CCRF-CEM leukemia): > 100 µM
- TGI (EKVX NSCLC): > 100 µM
- TGI (SNB-19 CNS): > 100 µM
- TGI (KM12 colon): > 100 µM
- TGI (786-0 renal): > 100 µM
- TGI (HOP-92 NSCLC): > 100 µM
- TGI (RXF-631 renal): > 100 µM
- TGI (RPMI-8226 leukemia): > 100 µM
- TGI (SN12C renal): > 100 µM
- TGI (SR leukemia): > 100 µM
- TGI (HT29 colon): > 100 µM
- TGI (UO-31 renal): > 100 µM
- TGI (MALME-3M melanoma): > 100 µM
- TGI (COLO 205 colon): > 100 µM
- TGI (XF 498 CNS): > 100 µM
- TGI (U251 CNS): > 100 µM
- TGI (OVCAR-8 ovarian): > 100 µM
- TGI (UACC-257 melanoma): > 100 µM
- TGI (DMS 114 small cell lung): > 100 µM
- TGI (HOP-62 NSCLC): > 100 µM
- TGI (SF-539 CNS): > 100 µM
- TGI (SK-OV-3 ovarian): > 100 µM
- TGI (SW-620 colon): > 100 µM
- TGI (A549 NSCLC): > 100 µM
- TGI (A498 renal): > 100 µM
- TGI (HCC-2998 colon): > 100 µM
